Literature values in US20140155265A1, “HERBICIDAL COMPOSITIN COMPRISING PINOXADEN AND FLUROXYPYR AND METHODS OF USE THEREOF” (priority 2011, published 2014).

Conditions: Pesticide Manual 15th edition

Question: For `Nc1c(Cl)c(F)nc(OCC(=O)O)c1Cl` [Fluoroxypyr (free carboxylic acid), Fluoroxypyr], which pKa is on record?
Answer: 2.94
